17 compounds from patent US20230203059A1, “MACROCYCLIC JAK INHIBITOR AND USES THEREOF” (Biopolar Hongye (Guangdong) Pharmaceutical Co. Ltd., priority 2020, published 2023) can be followed below.

What all share (format): biochemical
One experiment addresses JAK1 (Homo sapiens, UniProt P23458). In words: JAK kinase activity, homogeneous time-resolved fluorescence (JAK1 reaction system). As to conditions: ATP 2 μM, JAK1 protein 0.2 ng/μL; read-out: JAK 1 activity. A digest of the protocol: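 HTRF assay: JAK1 (0.2 ng/μL) with 2 μM ATP and substrate in 50 mM Hepes pH 7.0, 5 mM MgCl2, 1 mM DTT, 1 h. Phospho-substrate antibody/XL-615 detection with EDTA; 665/615 nm ratio, excitation 320 nm. IC50 from Hill-type fit against no-enzyme and no-compound controls.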

A further experiment concerns the target TYK2 (Homo sapiens, UniProt P29597). In words: JAK kinase activity, homogeneous time-resolved fluorescence (TYK2 reaction system). As to conditions: ATP 2 μM, TYK2 protein 0.2 ng/μL; read-out: TYK 2 activity. A digest of the protocol: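 Activity read as the 665 nm/615 nm ratio after adding EDTA-containing detection mix with anti-phospho-substrate antibody and XL-615. Beforehand, 0.2 ng/μL TYK2, 2 μM ATP, substrate and compound reacted 1 h in pH 7.0 Hepes buffer with MgCl2 and DTT. IC50 fitted with Hill-slope equation.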

The next experiment concerns the target JAK2 (Homo sapiens, UniProt O60674). In words: JAK kinase activity, homogeneous time-resolved fluorescence (JAK2 reaction system). As to conditions: ATP 2 μM, JAK2 protein 0.01 ng/μL. The procedure, abridged:
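IC50 derived by Hill-equation fit of the 665/615 nm time-resolved fluorescence ratio after EDTA-containing detection mix with anti-phosphosubstrate antibody. Preceding 1 h reaction contained 2 μM ATP, 0.01 ng/μL JAK2, substrate, 50 mM Hepes pH 7.0, 5 mM MgCl2, 1 mM DTT.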

For a further experiment, the target named is T1, JAK3 (Homo sapiens, UniProt P52333).
T1 sequence (P52333 1-1124): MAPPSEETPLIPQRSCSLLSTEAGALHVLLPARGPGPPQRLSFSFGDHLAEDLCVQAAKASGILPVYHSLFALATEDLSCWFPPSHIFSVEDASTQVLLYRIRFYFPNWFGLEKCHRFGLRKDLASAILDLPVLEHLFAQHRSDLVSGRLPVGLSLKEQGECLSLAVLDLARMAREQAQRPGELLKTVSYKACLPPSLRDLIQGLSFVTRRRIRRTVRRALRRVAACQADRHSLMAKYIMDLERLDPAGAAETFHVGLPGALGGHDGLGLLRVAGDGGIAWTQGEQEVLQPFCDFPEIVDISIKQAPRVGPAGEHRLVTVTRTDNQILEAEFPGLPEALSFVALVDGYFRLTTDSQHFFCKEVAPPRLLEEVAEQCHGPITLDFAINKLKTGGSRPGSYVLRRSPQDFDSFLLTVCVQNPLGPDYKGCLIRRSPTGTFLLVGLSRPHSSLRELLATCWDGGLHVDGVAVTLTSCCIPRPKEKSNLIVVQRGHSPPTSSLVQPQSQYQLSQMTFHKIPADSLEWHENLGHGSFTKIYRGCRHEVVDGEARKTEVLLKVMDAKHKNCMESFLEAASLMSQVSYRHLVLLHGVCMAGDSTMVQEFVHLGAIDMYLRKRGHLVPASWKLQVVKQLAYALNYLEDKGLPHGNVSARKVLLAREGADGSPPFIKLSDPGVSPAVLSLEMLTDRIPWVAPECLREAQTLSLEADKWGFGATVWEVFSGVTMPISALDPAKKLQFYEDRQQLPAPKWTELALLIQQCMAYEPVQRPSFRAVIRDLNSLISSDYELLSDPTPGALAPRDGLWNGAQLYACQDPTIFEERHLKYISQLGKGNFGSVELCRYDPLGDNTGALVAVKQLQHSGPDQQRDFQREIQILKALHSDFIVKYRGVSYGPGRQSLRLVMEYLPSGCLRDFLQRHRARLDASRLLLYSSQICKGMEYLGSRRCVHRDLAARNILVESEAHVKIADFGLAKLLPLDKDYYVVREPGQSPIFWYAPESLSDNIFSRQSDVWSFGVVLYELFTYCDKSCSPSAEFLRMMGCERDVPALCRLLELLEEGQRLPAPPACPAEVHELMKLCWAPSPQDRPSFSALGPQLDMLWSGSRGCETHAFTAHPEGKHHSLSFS
In words: JAK kinase activity, homogeneous time-resolved fluorescence (JAK3 reaction system). As to conditions: ATP 2 μM, JAK3 protein 0.04 ng/μL; read-out: JAK 3 activity.

Molecules are shown by their SMILES.

JAK1, sequence (P23458 whole entry): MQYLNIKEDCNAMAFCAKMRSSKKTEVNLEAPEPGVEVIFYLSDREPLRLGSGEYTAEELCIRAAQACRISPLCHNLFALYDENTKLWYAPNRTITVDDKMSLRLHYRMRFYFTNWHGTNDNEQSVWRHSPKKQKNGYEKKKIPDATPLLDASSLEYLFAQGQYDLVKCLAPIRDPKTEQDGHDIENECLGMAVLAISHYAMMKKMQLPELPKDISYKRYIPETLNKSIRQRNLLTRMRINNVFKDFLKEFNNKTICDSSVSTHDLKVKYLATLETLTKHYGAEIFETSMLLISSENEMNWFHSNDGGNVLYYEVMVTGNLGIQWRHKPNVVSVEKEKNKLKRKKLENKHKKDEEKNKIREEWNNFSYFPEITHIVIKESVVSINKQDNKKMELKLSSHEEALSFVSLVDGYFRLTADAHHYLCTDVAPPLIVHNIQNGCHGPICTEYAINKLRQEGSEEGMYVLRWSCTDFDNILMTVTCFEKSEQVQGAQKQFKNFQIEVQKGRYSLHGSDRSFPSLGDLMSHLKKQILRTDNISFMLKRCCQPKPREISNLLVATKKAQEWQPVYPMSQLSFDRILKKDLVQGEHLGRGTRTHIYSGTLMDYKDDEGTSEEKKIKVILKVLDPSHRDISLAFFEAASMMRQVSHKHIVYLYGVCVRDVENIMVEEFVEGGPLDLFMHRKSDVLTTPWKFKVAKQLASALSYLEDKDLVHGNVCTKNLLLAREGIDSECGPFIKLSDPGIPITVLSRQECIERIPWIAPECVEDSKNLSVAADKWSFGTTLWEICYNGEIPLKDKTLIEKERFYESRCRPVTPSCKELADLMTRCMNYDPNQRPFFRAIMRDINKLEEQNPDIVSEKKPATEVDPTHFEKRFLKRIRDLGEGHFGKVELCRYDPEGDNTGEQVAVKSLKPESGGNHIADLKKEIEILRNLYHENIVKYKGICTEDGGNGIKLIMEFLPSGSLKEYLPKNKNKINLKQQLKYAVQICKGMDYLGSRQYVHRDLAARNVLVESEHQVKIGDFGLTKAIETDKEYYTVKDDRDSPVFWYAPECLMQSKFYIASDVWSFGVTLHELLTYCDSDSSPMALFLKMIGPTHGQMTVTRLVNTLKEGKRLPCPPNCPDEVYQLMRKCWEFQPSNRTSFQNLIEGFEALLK
JAK2, sequence (O60674 whole entry): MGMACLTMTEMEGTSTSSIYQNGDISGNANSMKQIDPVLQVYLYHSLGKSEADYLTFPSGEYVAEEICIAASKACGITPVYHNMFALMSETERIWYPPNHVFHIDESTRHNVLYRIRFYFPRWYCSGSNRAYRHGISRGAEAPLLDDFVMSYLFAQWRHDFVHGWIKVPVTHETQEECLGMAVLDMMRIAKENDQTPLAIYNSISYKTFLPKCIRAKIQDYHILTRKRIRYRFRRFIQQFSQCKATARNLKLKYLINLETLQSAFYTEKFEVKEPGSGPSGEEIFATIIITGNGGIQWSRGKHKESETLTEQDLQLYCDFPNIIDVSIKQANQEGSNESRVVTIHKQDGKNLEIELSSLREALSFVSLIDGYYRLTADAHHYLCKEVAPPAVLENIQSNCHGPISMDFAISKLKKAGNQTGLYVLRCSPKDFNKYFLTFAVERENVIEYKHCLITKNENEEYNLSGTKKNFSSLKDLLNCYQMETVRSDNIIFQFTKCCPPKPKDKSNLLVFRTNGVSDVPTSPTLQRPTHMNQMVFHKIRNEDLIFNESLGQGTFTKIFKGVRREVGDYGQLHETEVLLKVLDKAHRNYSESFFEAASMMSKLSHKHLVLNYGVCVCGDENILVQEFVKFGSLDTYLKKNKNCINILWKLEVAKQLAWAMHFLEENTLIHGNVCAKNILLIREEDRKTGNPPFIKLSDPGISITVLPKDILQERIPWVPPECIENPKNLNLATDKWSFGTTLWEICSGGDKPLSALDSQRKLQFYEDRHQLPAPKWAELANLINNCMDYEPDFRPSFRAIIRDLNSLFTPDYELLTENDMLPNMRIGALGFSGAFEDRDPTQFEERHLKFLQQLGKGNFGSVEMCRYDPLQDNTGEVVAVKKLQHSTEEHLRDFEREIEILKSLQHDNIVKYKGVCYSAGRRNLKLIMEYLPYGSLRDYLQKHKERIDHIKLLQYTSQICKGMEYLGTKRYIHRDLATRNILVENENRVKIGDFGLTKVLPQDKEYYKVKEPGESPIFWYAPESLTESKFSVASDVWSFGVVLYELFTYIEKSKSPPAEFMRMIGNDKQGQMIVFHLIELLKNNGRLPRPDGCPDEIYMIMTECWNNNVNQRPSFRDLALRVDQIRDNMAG
TYK2, sequence (P29597 whole entry): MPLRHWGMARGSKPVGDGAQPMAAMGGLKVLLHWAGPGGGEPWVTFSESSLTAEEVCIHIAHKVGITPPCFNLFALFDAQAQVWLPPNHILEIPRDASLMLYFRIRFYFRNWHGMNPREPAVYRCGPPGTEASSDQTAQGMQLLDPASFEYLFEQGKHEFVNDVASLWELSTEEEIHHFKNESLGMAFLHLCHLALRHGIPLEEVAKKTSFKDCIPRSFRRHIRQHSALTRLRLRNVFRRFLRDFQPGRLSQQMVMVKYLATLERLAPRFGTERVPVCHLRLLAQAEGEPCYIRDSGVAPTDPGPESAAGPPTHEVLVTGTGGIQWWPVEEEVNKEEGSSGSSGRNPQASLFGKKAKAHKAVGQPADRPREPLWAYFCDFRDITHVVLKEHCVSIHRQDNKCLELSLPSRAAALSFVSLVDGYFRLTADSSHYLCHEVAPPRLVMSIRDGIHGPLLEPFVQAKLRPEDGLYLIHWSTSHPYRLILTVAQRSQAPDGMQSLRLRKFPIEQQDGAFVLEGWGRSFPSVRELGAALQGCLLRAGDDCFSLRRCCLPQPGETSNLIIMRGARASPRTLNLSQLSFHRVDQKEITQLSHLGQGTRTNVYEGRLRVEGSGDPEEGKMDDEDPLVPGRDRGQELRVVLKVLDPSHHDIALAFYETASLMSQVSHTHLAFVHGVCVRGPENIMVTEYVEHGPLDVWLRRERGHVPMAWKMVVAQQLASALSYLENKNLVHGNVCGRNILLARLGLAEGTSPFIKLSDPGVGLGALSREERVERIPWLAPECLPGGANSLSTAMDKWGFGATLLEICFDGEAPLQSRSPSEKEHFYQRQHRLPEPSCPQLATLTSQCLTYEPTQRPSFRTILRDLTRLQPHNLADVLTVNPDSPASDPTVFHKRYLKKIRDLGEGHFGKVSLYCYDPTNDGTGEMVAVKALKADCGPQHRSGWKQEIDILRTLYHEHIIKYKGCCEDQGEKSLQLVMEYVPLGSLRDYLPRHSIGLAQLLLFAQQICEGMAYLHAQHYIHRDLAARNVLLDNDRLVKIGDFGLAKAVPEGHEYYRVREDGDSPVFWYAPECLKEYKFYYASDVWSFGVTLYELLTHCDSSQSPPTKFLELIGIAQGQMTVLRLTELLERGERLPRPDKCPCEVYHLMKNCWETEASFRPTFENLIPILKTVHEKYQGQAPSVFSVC

With `Nc1cc2ccc1-c1ccnc(n1)Nc1ccc(OC3CC3)c(c1)COCCCCNC2=O` [Example 74, 1^2-amino-4^4-cyclopropoxy-6-oxa-3,11-diaza-2(4,2)-pyrimidina-1(1,4),4(1,3)-dibenzenacyclododecaphan-12-one], the IC50 on JAK1 was 1000 to 10000 nM; at TYK2 it was 1000 to 10000 nM; against JAK2, 101 to 1000 nM; on JAK3, < 10 nM.
In the case of `Nc1cc2ccc1-c1ccnc(n1)Nc1ccc(OC3COC3)c(c1)COCCCCNC2=O` [Example 75, 1^2-amino-4^4-(oxetan-3-oxy)-6-oxa-3,11-diaza-2(4,2)-pyrimidina-1(1,4),4(1,3)-dibenzenacyclododecaphan-12-one], the IC50 on JAK1 was 1000 to 10000 nM; at TYK2, 1000 to 10000 nM; on JAK2, 101 to 1000 nM; at JAK3 it was 11 to 100 nM.
In the case of `O=C1NCCCCOCc2cc(cc(N3CCSCC3)c2)Nc2nccc(n2)-c2ccc1cc2[N+](=O)[O-]` [Example 76, 1^2-nitro-4^5-thiomorpholin-6-oxa-3,11-diaza-2(4,2)-pyrimidina-1(1,4),4(1,3)-dibenzenacyclododecaphan-12-one], the IC50 on JAK1 was 1000 to 10000 nM; on TYK2, > 10000 nM; at JAK2, 101 to 1000 nM; at JAK3, 101 to 1000 nM.
As to `Nc1cc2ccc1-c1ccnc(n1)Nc1cc(cc(N3CCSCC3)c1)COCCCCNC2=O` [Example 77, 1^2-amino-4^5-thiomorpholin-6-oxa-3,11-diaza-2(4,2)-pyrimidina-1(1,4),4(1,3)-dibenzenacyclododecaphan-12-one], the IC50 at JAK1 fell in the range of 101 to 1000 nM; on TYK2, 101 to 1000 nM; against JAK2, 11 to 100 nM; at JAK3, 11 to 100 nM.
As to `Cc1cc2ccc1-c1ccnc(n1)Nc1ccc(N)c(c1)COCCCCNC2=O` [Example 78, 4^4-amino-1^2-methyl-6-oxa-3,11-dia-za-2(4,2)-pyrimidina-1(1,4),4(1,3)-dibenzenacyclododecaphan-12-one], the IC50 is 1000 to 10000 nM on JAK1, > 10000 nM at TYK2, 101 to 1000 nM against JAK2 and 11 to 100 nM at JAK3.
On to `Nc1cc2ccc1-c1ccnc(n1)Nc1ccc(OC3CCC3)c(c1)COCCCCNC2=O` [Example 79, 1^2-amino-4^4-cyclobutoxy-6-oxa-3,11-diaza-2(4,2)-pyrimidina-1(1,4),4(1,3)-dibenzenacyclododecaphan-12-one], for which the IC50 at JAK1 fell in the range of 101 to 1000 nM; on TYK2 it was 1000 to 10000 nM; against JAK2, 101 to 1000 nM; at JAK3 it was 11 to 100 nM.
Consider `O=C1NC2CCC(CC2)COCc2cc(ccc2N2CCOCC2)Nc2nccc(n2)-c2ccc1cc2` [Example 80, 4^4-morpholine-6-oxa-3,9-diaza-2(4,2)-pyrimidina-1(1,4),4(1,3)-dibenze-na-8(1,4)-cyclododecaphan-10-one], for which the IC50 was 1000 to 10000 nM at JAK1, > 10000 nM at TYK2, 1000 to 10000 nM on JAK2 and 1000 to 10000 nM at JAK3.
With `O=C1NCCCCOCc2cc(ccc2O)Nc2nccc(n2)-c2ccc1cc2[N+](=O)[O-]` [Example 81, 4^4-hydroxy-1-nitro-6-oxa-3,11-diaza-2(4,2)-pyrimidina-1(1,4),4(1,3)-di-benzenacyclododecaphan-12-one], the IC50 at JAK1 was 1000 to 10000 nM; on TYK2 it was > 10000 nM; against JAK2 it was 1000 to 10000 nM; on JAK3, 101 to 1000 nM.
As to `CNc1cc2ccc1-c1ccnc(n1)Nc1ccc(OC3CC3)c(c1)COCCCCNC2=O` [Example 82, 4^4-cyclopropoxy-1^2-methylamino-6-oxa-3,11-diaza-2(4,2)-pyrimidina-1(1,4),4(1,3)-dibenzenacyclododeca-phan-12-one], the IC50 was 1000 to 10000 nM on JAK1, > 10000 nM at TYK2, 1000 to 10000 nM against JAK2 and 1000 to 10000 nM at JAK3.
Regarding `CN(C)c1cc2ccc1-c1ccnc(n1)Nc1ccc(OC3CC3)c(c1)COCCCCNC2=O` [Example 83, 4^4-cyclopropxy-1^2-dimethylamino-6-oxa-3,11-diaza-2(4,2)-pyrimidina-1(1,4),4(1,3)-dibenzenacyclododeca-phan-12-one], the IC50 at JAK1 is 1000 to 10000 nM; at TYK2 it was > 10000 nM; against JAK2 it was 1000 to 10000 nM; at JAK3 it was > 10000 nM.
Take `Nc1cc2ccc1-c1ccnc(n1)Nc1cc(F)c(OC3CCOCC3)c(c1)COCCCCNC2=O` [Example 84, 1^2-amino-4^5-fluoro-4^4-((tetrahydro-2H-pyran-4-yl)oxy)-6-oxa-3,11-dia-za-2(4,2)-pyrimidina-1(1,4),4(1,3)-dibenzenacyclododecaphan-12-one]: the IC50 at JAK1 lay in the range of 101 to 1000 nM; at TYK2, 1000 to 10000 nM; against JAK2, 101 to 1000 nM; at JAK3, 11 to 100 nM.
For `CC(C)Oc1c(F)cc2cc1COCCCCNC(=O)c1ccc(c(N)c1)-c1ccnc(n1)N2` [Example 85, 1^2-amino-4^5-fluoro-4^4-isopropoxy-6-oxa-3,11-diaza-2(4,2)-pyrimidina-1(1,4),4(1,3)-dibenzenacyclododeca-phan-12-one], the IC50 on JAK1 is 101 to 1000 nM; at TYK2 it was > 10000 nM; against JAK2, 101 to 1000 nM; on JAK3 it was 11 to 100 nM.
Turning to `CNc1cc2ccc1-c1ccnc(n1)Nc1ccc(OC(C)C)c(c1)COCCCCNC2=O` [Example 86, 4^4-isopropoxy-1^2-methyalmino-6-o-xa-3,11-diaza-2(4,2)-pyrimidina-1(1,4),4(1,3)-dibenzenacyclododecaphan-12-one], the IC50 at JAK1 was 1000 to 10000 nM; on TYK2 it was > 10000 nM; on JAK2, 1000 to 10000 nM; on JAK3, 101 to 1000 nM.
Consider `O=C1NCCCCOCc2cc(ccc2OC2CCCC2)Nc2nccc(n2)-c2ccc1cc2[N+](=O)[O-]` [Example 87, 4^4-cyclopentoxy-1^2-nitro-6-oxa-3,11-diaza-2(4,2)-pyrimidina-1(1,4),4(1,3)-dibenzenacyclododecaphan-12-one], for which the IC50 is > 10000 nM at JAK1, > 10000 nM on TYK2, > 10000 nM on JAK2 and 101 to 1000 nM on JAK3.
On to `Nc1cc2ccc1-c1ccnc(n1)Nc1ccc(OC3CCCC3)c(c1)COCCCCNC2=O` [Example 88, 1^2-amino-4^4-cyclopentoxy-6-oxa-3,11-diaza-2(4,2)-pyrimidina-1(1,4),4(1,3)-dibenzenacyclododecaphan-12-one], for which the IC50 on JAK1 is 101 to 1000 nM; at TYK2, 1000 to 10000 nM; at JAK2 it was 11 to 100 nM; at JAK3, < 10 nM.
As to `O=C1NCCCCOCc2cc(ccc2Br)Nc2nccc(n2)-c2ccc1cc2[N+](=O)[O-]` [Example 89, 4^4-bromo-1^2-nitro-6-oxa-3,11-diaza-2(4,2)-pyrimidina-1(1,4),4(1,3)-di-benzenacyclododecaphan-12-one], the IC50 on JAK1 was 1000 to 10000 nM; at TYK2, > 10000 nM; on JAK2 it was 1000 to 10000 nM; on JAK3, 1000 to 10000 nM.
For the compound `Nc1cc2ccc1-c1ccnc(n1)Nc1ccc(Br)c(c1)COCCCCNC2=O` [Example 90, 1^2-amino-4^4-bromo-6-oxa-3,11-diaza-2(4,2)-pyrimidina-1(1,4),4(1,3)-di-benzenacyclododecaphan-12-one], the IC50 was 101 to 1000 nM at JAK1, > 10000 nM on TYK2, 101 to 1000 nM at JAK2 and 11 to 100 nM on JAK3.
